Experimental findings from US12440476B2, “Agents that target telomerase reverse transcriptase (TERT) for treating cancer and sensitizing cancer cells to genotoxic therapy” (Northwestern University, priority 2022, dated 2025) are described below.

Series [1] relates to CT26 cells. As to the kind of experiment: Senescence-associated beta-galactosidase (SA-β-Gal) assay. In kind it is cell-based, mouse. The note with it: non-toxic doses, 10 Gy, 5 days. As to the method:
(§1) MCF7, Saos-2, or CT26 cells were seeded at 3×10^4 per well in 6-well plates and allowed to attach to plate overnight. For TERT inhibition, MCF7 cells were treated with DMSO vehicle, NU-2 (0.5 μM), NU-1 (0.5 μM), chrolactomycin (0.5 μM), BIBR 1532 (10 μM), or MST-312 (1 μM) for 1 h prior to IR, Saos-2 cells were treated with DMSO vehicle, NU-2 (1 μM), NU-1 (1 μM), chrolactomycin (1 μM), BIBR 1532 (20 μM), or MST-312 (1 μM) for 1 h prior to IR, and CT26 cells were treated with MSO vehicle, NU-2 (1 μM), NU-1 (1 μM), chrolactomycin (1 μM), BIBR 1532 (20 μM), or MST-312 (2 μM) for 1 h prior to IR. Then MCF7 and Saos-2 cells were irradiated with 0 or 6 Gy and CT26 cells with 0 or 10 Gy. After IR, MCF7 and Saos-2 cells were continuously cultured for 7 days and CT26 for 5 days, then fixed in 2% PFA and stained with staining buffer (1 mg/ml X-Gal (Golden Bio), 40 mM citric acid/sodium phosphate, 150 mM NaCl, 2 mM MgCl2, 3.3 mM K3[Fe(CN)6], 3.3 mM K4[Fe(CN)6], pH=6) for 16 h at 37° C., then washed with warm PBS three times and imaged in PBS within a week. Images were captured on a Zeiss Axiovert 200M microscope with a 20× Plan-NeoFluar objective and Axiocam digital camera. SA-β-Gal-positive and -negative cells were counted in more than 5 fields, yielding an average percentage indicated on each SA-β-Gal image as mean±SD. Three replicates were performed.
To examine the roles for STING, CT26 cells were seeded at 2×10^4 per well in 12-well plates and allowed to attach overnight. STING inhibitor C178 (0 or 4 μM) was added, followed by the addition of DMSO vehicle, NU-1 (1 μM), MST-312 (2 μM) or chrolactomycin (1 μM) for 1 h prior to 0 or 10 Gy. CT26 cells were cultured for 5 days, surviving cells were washed twice in PBS and cultured in fresh immune cell culture medium overnight. The CT26 cells were then cocultured with BMDCs for 12-16 h at a 1:2 ratio, and BMDCs were collected and analyzed after coculturing, as described above.

Series [2] deals with CT26 cells. As to the kind of experiment: Clonogenicity assay (inhibitor alone). In kind it is cell-based, mouse. The conditions noted are these: 1 μM NU-1, 2 μM MST, 20 μM BIBR. How it is done: MCF7, Saos-2, or CT26 cells were seeded in 6-well plates at 100 cells per well in triplicate and allowed to attach overnight. MCF7 or CT26 cells were then treated with DMSO vehicle or TERT inhibitors in final concentration of 0.25, 0.5, 0.75, 1, 2 μM for NU-1, 2.5, 5, 7.5, 10, 20 μM for BIBR 1532, or 1, 2, 3, 4, 5 μM for MST-312. Saos-2 cells were treated with DMSO vehicle or TERT inhibitors in final concentration of 0.25, 0.5, 0.75, 1, 2 μM for NU-1 or 2.5, 5, 10, 20, 40 μM for BIBR 1532. The final volume of cell culture medium was 3 mL per well. MCF7 and Saos-2 cells were continuously cultured for 3 weeks and CT26 for 2 weeks in the presence of TERT inhibitors, fixed in methanol for 5 min, then stained with 0.5% crystal violet for 10 min at room temperature. After washing with water, the plates were dried at room temperature and imaged with an iBright Imaging System (Thermo Fisher Scientific).

Series [3] relates to MCF7 cells. As to the kind of experiment: Clonogenic survival after irradiation (radiosensitivity). In kind it is cell-based, human. The conditions noted are these: MCF7 cells; NU-1 0.5 μM, BIBR 1532 10 μM, MST-312 1 μM for 1 h prior to IR; 2 Gy. As to the method: (§2) To assess radiosensitivity, MCF7, Saos-2, or CT26 cells were seeded in 6-well plates at 100 cells per well in triplicate, allowed to attach overnight and treated with DMSO or TERT inhibitors at subtoxic concentrations for 1 h prior to IR. MCF7 cells were treated with 0.5 μM NU-1, 10 μM BIBR 1532, or 1 μM MST-312, Saos-2 cells with 1 μM NU-1 or 20 μM BIBR 1532 and CT26 cells with 1 μM NU-1, 20 μM BIBR 1532 or 2 μM MST-312. Doses of 0, 1, 2, 3, 4, or 5 Gy were applied using a GammaCell ^60Co γ-ray source (Nordion) at a dose rate of 7.09 cGy/sec. After that MCF7 and Saos-2 cells were cultured for 3 weeks and CT26 for 2 weeks, then fixed and stained with crystal violet. Colonies of at least 50 cells were counted. Data from three independent biological replicates were acquired. The surviving fraction (SF) was calculated using the following formula: […]

The test system of series [4] is CT26 cells. Described as above. The note with it: for Sensitization of CT26 cells to radiation: non-toxic doses; for Mean SF2 (surviving fraction at 2 Gy): CT26 cells, NU-1 1 μM, BIBR 1532 20 μM, MST-312 2 μM for 1 h prior to IR. In kind it is cell-based, mouse. As to the method: as §2
The subject of a further series is CD8+ T cells. Description: In vitro T cell priming assay (CFSE dilution). In kind it is cell-based, mouse. The note with it: DCs stimulated by inhibitor treated and irradiated (10 Gy) CT26 cells; 5 days; NU-1 1 μM, MST 2 μM. As to the method: To evaluate effects of TERT on tumor immunogenicity, CT26 cells were seeded at […] per well in 12-well plates, allowed to attach overnight, and then treated with DMSO, NU-1 (1 μM), or MST-312 (2 μM) for 1 h, followed by 0 or 10 Gy. 5 days after IR, the media were removed, cells washed with PBS, and fresh immune cell culture medium added. CT26 cells were then cultured overnight, followed by coculturing with immature BMDCs for 12-16 h at a 1:2 ratio. After coculture, the suspension BMDCs were collected into round bottom FACS tubes, washed with PBS, and stained with Zombie yellow (1:1000, BioLegend) for 10 min at room temperature. […] After PBS washing, cells were resuspended in 300 μL Cell Staining Buffer and analyzed using a BD Fortessa 4-15 HTS Flow cytometer within 2 hours. Data were then analyzed by FlowJo software. […]
Splenocytes isolated from CT26 immunized mice were stained with 0.5 μM carboxyfluorescein succinimidyl ester (CFSE) (Thermo Fisher Scientific, Cat #C34554) for 10 min at room temperature (Quah et al., 2007). […] Cells were analyzed using a BD Fortessa 4-15 HTS flow cytometer and FlowJo software. […]

The test system of series [5] is MCF7 cells. Description: Senescence-associated beta-galactosidase (SA-β-Gal) assay. In kind it is cell-based, human. As to the method: as §1, with “For TERT inhibition, MCF7 cells were treated with DMSO vehicle, NU-2 (0.5 μM), NU-1 (0.5 μM), chrolactomycin (0.5 μM), BIBR 1532 (10 μM), or MST-312 (1 μM) for 1 h prior to IR, Saos-2 cells were treated with DMSO vehicle, NU-2 (1 μM), NU-1 (1 μM), chrolactomycin (1 μM), BIBR 1532 (20 μM), or MST-312 (1 μM) for 1 h prior to IR, and CT26 cells were treated with MSO vehicle, NU-2 (1 μM), NU-1 (1 μM), chrolactomycin (1 μM), BIBR 1532 (20 μM), or MST-312 (2 μM) for 1 h prior to IR.” left out

The next series deals with MCF7-FUCCI cells. Description: Time-lapse live-cell analysis of cell cycle. In kind it is cell-based, human. The conditions noted are these: 0.5 μM for 1 h, then 6 Gy, 6 days. As to the method: MCF7-FUCCI cells were seeded at 3×10^4 per well in 6-well plates, allowed to attach overnight, then treated with 0.5 μM NU-2 control, NU-1 or chrolactomycin for 1 h, followed by 6 Gy. Then, live-cell imaging was conducted using the IncuCyteS3. Phase contrast along with green and red channels were acquired at 20× magnification with scanning every 2 h for 6 days. 16 non-overlapping fields were captured for each well. Representative consecutive images were used to create the movies using Fiji (Schindelin et al., 2012).

The next series deals with Saos-2 cells. Description: Clonogenic survival after irradiation (radiosensitivity). In kind it is cell-based, human. The note with it: NU-1 1 μM. How it is done: as §2

Take `O=C(Nc1cccc(NC(=O)c2cccc(O)c2O)c1)c1cccc(O)c1O` [MST-312]: the “Senescence induction by IR” value with CT26 cells [1] is on record as “enhanced senescence induction by IR”. Moreover, the “Tolerance in clonogenic assay (inhibitor alone)” value in the series on CT26 cells [2] is reported as “tolerated”. Moreover, the “Mean SF2 (surviving fraction at 2 Gy)” value in the series on MCF7 cells [3] came out at 0.245. For the same molecule, in the series with CT26 cells [4], the “Sensitization of CT26 cells to radiation” value is “sensitized CT26 cells to radiation” and the “Mean SF2 (surviving fraction at 2 Gy)” value is given as 0.407. Further, in the series on CD8+ T cells, the “Proliferating CD8+ T cells” value is listed as 30.4%.

Regarding `COC(=O)[C@@]1(C)C(=O)C[C@@H](C)O[C@H]1CCc1cn(Cc2ccc(F)cc2F)nn1` [NU-2], the “SA-β-Gal+ cells” value in the series with MCF7 cells [5] (7 days after IR (6 Gy)) is recorded as about 34%. Besides, in the series with MCF7-FUCCI cells, the “Surviving cells arrested with G1 marker expression and senescent morphology” value was about 40%.

Consider `C=C1C(=O)[C@]2(OC)C(=O)O[C@@]34C[C@H](C)C(C(=O)O)=C[C@@H]3CCC[C@@H](C)C[C@@H](C)[C@H]1O[C@H]24` [CHRO, chrolactomycin, reference compound], for which the “Enhancement of senescence after IR at low concentration” value in the series on MCF7 cells [5] (50 nM, 7 days after IR) is recorded as “sufficient to enhance senescence after IR”. In the series with MCF7-FUCCI cells, the “Surviving cells arrested with G1 marker expression and senescent morphology” value is recorded as about 80%.

Turning to `C/C(=C\C(=O)Nc1ccccc1C(=O)O)c1ccc2ccccc2c1` [BIBR 1532], the “Senescence induction by IR” value in the series on CT26 cells [1] is given as “had no similar effects”. For the same molecule, the “Tolerance in clonogenic assay (inhibitor alone)” value in the series with CT26 cells [2] is listed as “non-toxic”. The “Mean SF2 (surviving fraction at 2 Gy)” value in the series with MCF7 cells [3] is on record as 0.256; in the series on Saos-2 cells (Saos-2 cells, BIBR 1532 20 μM for 1 h prior to IR, 2 Gy), 0.580; in the series on CT26 cells [4] it was 0.727. The “Radiosensitization in clonogenic survival assay” value in the series with Saos-2 cells (Saos-2 (telomerase negative), BIBR 20 μM) was “Neither NU-1 nor BIBR displayed radiosensitization”. Further, the “Sensitization of CT26 cells to radiation” value in the series with CT26 cells [4] is “had no similar effects”.
